In patent US20240400972A1, “Antifouling Composition and Process for Production Thereof” (priority 2015, published 2024):

Assays:
[1] = test system: sea lice larvae and copepodids; assay: Sea lice larvae and copepodids viability bioassay; assay type: in vivo, Lepeophtheirus salmonis salmonis; conditions: 70 ppm, positive control
Experimental: The assay consisted on incubating sea lice (Lepeophtheirus salmonis salmonis) larvae and copepodids with PF-11 secretome in order to evaluate the viability of the larvae and copepodids compared to a blank control. Sodium hypocholorite (NaoCl), known to kill the larvae within 40 min at 70 ppm, was used as a positive control. Larvae were obtained by sedating salmon sea lice with Benzocain, harvesting egg strings with tweezers, and transferring the strings to a water bath placed in an incubator. Inside the incubator, the water was continuously changed throughout the incubation period. When the larvae were developed, they were removed from the incubator and used in the bioassay. Copepodids were developed from egg strings from sea lice as described for larvae. Seawater containing louse larvae and copepodids was placed in a petri dish and PF-11 secretome was added to the final pretended concentration. Larvae and copepodids in seawater with no added compounds were also used for comparison. The positive control was NaOCl at 70 ppm. The larvae and copepodids viability was checked over time. An evaluation of larvae viability was performed and compared to the viability in the blank controls. The viability in the pure seawater control and the medium blank control was monitored and compared and remained the same throughout the experiment.

[2] = test system: sea lice larvae and copepodids; conditions: 70 ppm; cited from earlier work
[3] = test system: extracellular proteases of PF-11 and NTC secretomes; assay type: biochemical; conditions: 10 mM inhibitor, relatively to non-treated control
Experimental: Briefly, 12% SDS-polyacrylamide gels (Laemmli 1970) were co-polymerized with 1% casein or gelatin at 4° C. Non reducing loading buffer (62.5 mM Tris, 2% SDS, 10% glycerol, 0.001% bromophenol blue) was added to secretome samples prior to loading. Electrophoresis was performed at 4° C. and 100 V until the bromophenol dye reached the bottom of the gel. After electrophoresis, gels were rinsed two times in 2.5% (v/v) Triton X-100, 30 min each, for SDS removal, followed by three washes, 5 min each, in deionized water. Gels were then incubated in activation buffer (0.1M Tris-HCl, 0.01M CaCl2, pH 8), at 37° C. for enzyme renaturation and subsequent proteolytic activity. The gels were washed three times, 5 min each, in deonized water prior to incubation for 1 h in Coomassie Brilliant Blue R-250. […] Protease activity was visible as clear bands on a blue background. […] Protease inhibition by phenyl methyl sulfonyl fluoride (PMSF) and EDTA was determined as described by Bertolini and Rohovec (Bertolini and Rohovec 1992).
Further evaluations of the type of proteases present in the extracellular protease producers were performed by selective inhibition of serine proteases by PMSF and of metallo-proteases by EDTA.

Strain PF-11 = assay type: cell-based, Pseudomonas putida; conditions: CLSI standards, EUCAST resistance breakpoints
Experimental: MICS (Minimum Inhibitory Concentration) was determined by agar dilution and disk diffusion according to CLSI standards (CLSI, M02-A10; CLSI, M100-S21). Briefly, LA plates were prepared supplemented with serial dilutions of the antibiotic to be tested to determine the MIC. The lowest antibiotic concentration preventing growth of the strain is considered the MIC value. The strain Escherichia coli ATCC 25922 was used as control strain, as recommended.

Structure (SMILES) | susceptibility of strain PF-11 (Strain PF-11) | also measured
[Na+].[O-]Cl [NaOCl, Sodium hypocholorite] | – | required time to become 100% effective [1]: 20 min; time to kill the larvae [2]: ≤ 40 min
O=C(O)CN(CCN(CC(=O)O)CC(=O)O)CC(=O)O [EDTA] | – | inhibition of proteolytic activity of PF-11 and NTC secretomes [3]: strongly inhibited
CC(C)(O/N=C(\C(=O)N[C@@H]1C(=O)N2C(C(=O)[O-])=C(C[n+]3ccccc3)CS[C@H]12)c1csc(N)n1)C(=O)O [ceftazidime] | resistant | –
CO[C@@]1(NC(=O)Cc2cccs2)C(=O)N2C(C(=O)O)=C(COC(N)=O)CS[C@@H]21 [cefoxitine] | resistant | –
CO/N=C(\C(=O)N[C@@H]1C(=O)N2C(C(=O)O)=C(COC(C)=O)CS[C@H]12)c1csc(N)n1 [cefotaxime] | resistant | –
CC1(C)S[C@@H]2[C@H](NC(=O)[C@H](N)c3ccc(O)cc3)C(=O)N2[C@H]1C(=O)O [amoxycillin] | resistant | –
CC1(C)S[C@@H]2[C@H](NC(=O)[C@H](N)c3ccccc3)C(=O)N2[C@H]1C(=O)O [ampicilin] | resistant | –
C[C@H]1[C@H](NC(=O)/C(=N\OC(C)(C)C(=O)O)c2csc(N)n2)C(=O)N1S(=O)(=O)O [aztreonam] | resistant | –
O=S(=O)(F)Cc1ccccc1 [PMSF, phenyl methyl sulfonyl fluoride] | – | inhibition of proteolytic activity of PF-11 and NTC secretomes [3]: significantly lower inhibitory effects
